Experimental data: patent US9884860B2, “Fused pyrroledicarboxamides and their use as pharmaceuticals” (SANOFI, priority 2012, dated 2018)

Target: Human TASK-1 channels (Homo sapiens (Human), UniProt O14649)
Experiment: Determination of the activity on the TASK-1 channel in Xenopus oocytes (two-microelectrode voltage clamp)
Assay type: cell-based
Details: for IC50: human TASK-1 expressed in Xenopus oocytes, room temperature, read-out: IC50 value for TASK-1 inhibition
Method: Determination of the activity on the TASK-1 channel in Xenopus oocytes
Human TASK-1 channels were expressed in Xenopus oocytes. For this purpose, oocytes were isolated from Xenopus laevis and defoliculated. Subsequently, TASK-1-encoding RNA synthesized in vitro was injected into the oocytes. After two days of TASK-1 protein expression, TASK-1 currents were measured by two-microelectrode voltage clamp. Data were acquired and analyzed using a TEC-10cx amplifier (NPI Electronic, Tamm, Germany) connected to an ITC-16 interface (Instrutech Corp., Long island, USA) and Pulse software (HEKA Elektronik, Lambrecht, Germany). Oocytes were clamped to −90 mV and TASK-1 mediated currents were measured during 500 ms voltage pulses to 40 mV. Oocytes were continuously superfused with ND96 buffer containing 98 mM sodium chloride, 2 mM potassium chloride, 1.8 mM calcium chloride, 1 mM magnesium chloride, 5 mM 4-(2-hydroxyethyl)-piperazine-1-ethanesulfonic acid (HEPES: pH adjusted to 7.4 with sodium hydroxide). All experiments were performed at room temperature. Test compounds were consecutively added to the bath solution at rising concentrations. Compound effects were calculated as the percentage inhibition of TASK-1 control current before compound addition. IC50 values were obtained by fitting the data to the general dose-response equation.

Sequence of Human TASK-1 channels (O14649 whole entry): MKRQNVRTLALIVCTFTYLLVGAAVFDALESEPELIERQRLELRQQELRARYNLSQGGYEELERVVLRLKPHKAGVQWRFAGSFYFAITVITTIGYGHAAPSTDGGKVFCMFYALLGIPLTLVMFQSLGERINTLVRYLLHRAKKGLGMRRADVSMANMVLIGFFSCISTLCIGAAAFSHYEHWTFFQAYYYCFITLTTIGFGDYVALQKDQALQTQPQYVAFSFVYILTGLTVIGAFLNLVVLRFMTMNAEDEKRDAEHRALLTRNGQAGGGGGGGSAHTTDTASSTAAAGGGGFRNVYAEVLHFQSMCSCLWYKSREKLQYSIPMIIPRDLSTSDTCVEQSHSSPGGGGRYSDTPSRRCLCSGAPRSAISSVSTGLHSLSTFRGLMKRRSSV

Row | Compound | IC50 [µM] | inhibition at 5 µM (compound concentration 5 μM) [%]
1 | 3,4-Dihydro-1H-pyrrolo[2,1-c][1,4]oxazine-6,8-dicarboxylic acid 8-[((R)- 1-phenyl-propyl)-amide] 6-{[(R)-1-(5-trifiuoromethyl-pyridin-3-yl)- propyl]-amide} [16hn] | 0.69 | 
2 | 3,4-Dihydro-1H-pyrrolo[2,1-c][1,4]oxazine-6,8-dicarboxylic acid 8-{[(R)- 1-(6-rnethoxy-pyridin-3-yl)-propy]-amide} 6-[((R)-1-phenyl-propyl)- amide] [16jo] | 0.25 | 
3 | 5,6,7,8-Tetrahydro-indolizine-1,3-dicarboxylic acid 3-[(3,5-dimethyl- isoxazol-4-yl)-amide] 1-[((R)-1-phenyl-propyl)-amide] [16nd] | 0.21 | 
4 | CC[C@@H](NC(=O)c1cc(C(=O)NC(C)c2cnccn2)n2c1COCC2)c1ccccc1 (single isomer, unassigned; diastereomer 1) [16if] | 1.1 | 
5 | CC[C@@H](NC(=O)c1cc(C(=O)NC(C)c2cnccn2)c2n1CCOC2)c1ccccc1 (single isomer, unassigned; diastereomer 1) [16jw] | 2.86 | 
6 | CC(NC(=O)c1cc(C(=O)N[C@@H](c2ccc(F)cc2)C(C)C)n2c1COCC2)c1cnccn1 (single isomer, unassigned; diastereomer 1) [16lq] | 0.7 | 
7 | CC[C@@H](NC(=O)c1cc(C(=O)NC(C)c2cnccn2)c2n1CCOC2)c1ccc(F)cc1F (single isomer, unassigned; diastereomer 1) [16pl] | 0.43 | 
8 | CCC(NC(=O)c1cc(C(=O)N2CCC[C@@H]2C)n2c1COCC2)c1ncc(C(F)(F)F)s1 (single isomer, unassigned; diastereomer 2) [16ce] | 0.28 | 
9 | CCC(NC(=O)c1cc(C(=O)N[C@H](CC)c2ccccc2)c2n1CCOC2)c1cnc(OC)nc1 (single isomer, unassigned; diastereomer 2) [16hv] | 0.76 | 
10 | CCC(NC(=O)c1cc(C(=O)N2CCC[C@@H]2C)n2c1COCC2)c1ccc(S(F)(F)(F)(F)F)cc1 (some centres unmarked) [16bf] | 0.74 | 
11 | CC[C@@H](NC(=O)c1cc(C(=O)N2CCC[C@@H]2C)n2c1COCC2)c1ccc2c(c1)OC(F)(F)O2 [16bz, 6-((S)-2-Methyl-pyrrolidine-1-carbonyl)-3,4-dihydro-1H-pyrrolo[2,1-c][1,4]oxazine-8-carboxylic acid [(R)-1-(2,2-difluoro-benzo[1,3]dioxol-5-yl)-propyl]-amide] | 0.2 | 
12 | CC[C@H](NC(=O)c1cc(C(=O)N[C@H](C)c2ccc(F)cc2)n2c1COCC2)c1cnc(OC)cn1 [16dv, 3,4-Dihydro-1H-pyrrolo[2,1-c][1,4]oxazine-6,8-dicarboxylic acid 6-{[(R)-1-(4-fluoro-phenyl)-ethyl]-amide} 8-{[(S)-1-(5-methoxy-pyrazin-2-yl)-propyl]-amide}] | 0.19 | 
13 | CC[C@@H](NC(=O)c1cc(C(=O)NCc2ccc3cc[nH]c3c2)n2c1COCC2)c1ccccc1 [16je, 3,4-Dihydro-1H-pyrrolo[2,1-c][1,4]oxazine-6,8-dicarboxylic acid 6-[(1H-indol-6-ylmethyl)-amide] 8-[((R)-1-phenyl-propyl)-amide]] |  | 91
14 | CC[C@@H](NC(=O)c1cc(C(=O)NCc2cncc(F)c2)n2c1CCCC2)c1ccccc1 [16nb, 5,6,7,8-Tetrahydro-indolizine-1,3-dicarboxylic acid 3-[(5-fluoro-pyridin-3-ylmethyl)-amide] 1-[((R)-1-phenyl-propyl)-amide]] | 0.46 | 
